Test results from US7385026B1, “Modified ghrelin polypeptides” (priority 1999, dated 2008).
Square brackets hold non-standard residues; d marks the D form. Peptide text beside a SMILES is read from it. * marks the point of attachment. Octanoyl = CCCCCCCC(=O)*; Aib = CC(C)(N)C(=O)O; Octyl = CCCCCCCC*

target: T1, rat GHS-receptor (GHR-R) (Rattus norvegicus, UniProt O08725); assay: Ca-releasing activity (increase in intracellular calcium) in CHO-GHSR62 cells, FLIPR; format: cell-based; details: CHO-GHSR62 cells
T1 construct: A full-length cDNA for rat GHR-R was obtained by RT-PCR; expressed in transfected cells
T1 sequence (O08725 whole entry): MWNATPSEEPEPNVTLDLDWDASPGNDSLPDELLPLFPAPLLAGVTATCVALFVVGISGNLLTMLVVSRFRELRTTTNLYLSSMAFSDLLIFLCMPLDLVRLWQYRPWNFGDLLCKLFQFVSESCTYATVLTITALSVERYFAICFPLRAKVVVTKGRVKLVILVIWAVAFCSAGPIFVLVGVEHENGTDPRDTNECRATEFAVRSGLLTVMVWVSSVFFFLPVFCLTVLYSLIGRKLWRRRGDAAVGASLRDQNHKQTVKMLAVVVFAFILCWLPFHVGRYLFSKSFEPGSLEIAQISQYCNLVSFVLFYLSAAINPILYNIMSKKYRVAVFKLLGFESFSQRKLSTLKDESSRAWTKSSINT
In short: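 CHO cells stably expressing full-length rat GHS-R (CHO-GHSR62) were cultured 12–15 h, loaded with 4 μM Fluo4 for 1 h and washed with Hank's BSS containing 20 mM Hepes and 2.5 mM probenecid. Ca-releasing activity of ghrelin peptides, fragments or derivatives was read by FLIPR as the fluorescence change after sample addition.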

Compound | Ca-releasing activity (in words)
CCCCCCCC(=O)O [n-octanoic acid, reference compound] | did not show a significant Ca-releasing activity
GHRH: GH releasing hormone, expressed as GRF in FIG. 3a [reference compound] | did not exhibit the Ca-releasing activity

same assay, conditions: CHO-GHSR62 cells (CHO cells expressing rat GHS receptor), FLIPR; read-out: Ca-releasing activity EC50

EC50 | Compound
19 nM | CC(C)C[C@H](NC(=O)[C@H](CCCCN)NC(=O)[C@H](C)NC(=O)[C@@H]1CCCN1C(=O)[C@@H]1CCCN1C(=O)[C@H](CCCCN)NC(=O)[C@H](CCCCN)NC(=O)[C@H](CO)NC(=O)[C@H](CCC(=O)O)NC(=O)[C@H](CCCCN)NC(=O)[C@H](CCCNC(=N)N)NC(=O)[C@H](CCC(N)=O)NC(=O)[C@H](CCC(N)=O)NC(=O)[C@@H](NC(=O)[C@H](CCCNC(=N)N)NC(=O)[C@H](CCC(N)=O)NC(=O)[C@H](Cc1c[nH]cn1)NC(=O)[C@H](CCC(=O)O)NC(=O)[C@@H]1CCCN1C(=O)[C@H](CO)NC(=O)[C@H](CC(C)C)NC(=O)[C@H](Cc1ccccc1)NC(=O)[C@H](CC1CCCCC1)NC(=O)[C@H](CO)NC(=O)CN)C(C)C)C(=O)N[C@@H](CCC(N)=O)C(=O)N1CCC[C@H]1C(=O)N[C@@H](CCCNC(=N)N)C(=O)O [Compound 64, [Cha^3]-hGhrelin]
7.6 nM | CC(C)C[C@H](NC(=O)[C@H](CCCCN)NC(=O)[C@H](C)NC(=O)[C@@H]1CCCN1C(=O)[C@@H]1CCCN1C(=O)[C@H](CCCCN)NC(=O)[C@H](CCCCN)NC(=O)[C@H](CO)NC(=O)[C@H](CCC(=O)O)NC(=O)[C@H](CCCCN)NC(=O)[C@H](CCCNC(=N)N)NC(=O)[C@H](CCC(N)=O)NC(=O)[C@H](CCC(N)=O)NC(=O)[C@@H](NC(=O)[C@H](CCCNC(=N)N)NC(=O)[C@H](CCC(N)=O)NC(=O)[C@H](Cc1c[nH]cn1)NC(=O)[C@H](CCC(=O)O)NC(=O)[C@@H]1CCCN1C(=O)[C@H](CO)NC(=O)[C@H](CC(C)C)NC(=O)[C@H](Cc1ccccc1)NC(=O)[C@H](COCc1ccccc1)NC(=O)[C@H](CO)NC(=O)CN)C(C)C)C(=O)N[C@@H](CCC(N)=O)C(=O)N1CCC[C@H]1C(=O)N[C@@H](CCCNC(=N)N)C(=O)O [Compound 67, [Ser^3(Bzl)]-hGhrelin]
4.4 nM | CC(C)CCC(=O)OC[C@H](NC(=O)[C@H](CO)NC(=O)CN)C(=O)N[C@@H](Cc1ccccc1)C(=O)N[C@@H](CC(C)C)C(=O)N[C@@H](CO)C(=O)N1CCC[C@H]1C(=O)N[C@@H](CCC(=O)O)C(=O)N[C@@H](Cc1c[nH]cn1)C(=O)N[C@@H](CCC(N)=O)C(=O)N[C@@H](CCCNC(=N)N)C(=O)N[C@H](C(=O)N[C@@H](CCC(N)=O)C(=O)N[C@@H](CCC(N)=O)C(=O)N[C@@H](CCCNC(=N)N)C(=O)N[C@@H](CCCCN)C(=O)N[C@@H](CCC(=O)O)C(=O)N[C@@H](CO)C(=O)N[C@@H](CCCCN)C(=O)N[C@@H](CCCCN)C(=O)N1CCC[C@H]1C(=O)N1CCC[C@H]1C(=O)N[C@@H](C)C(=O)N[C@@H](CCCCN)C(=O)N[C@@H](CC(C)C)C(=O)N[C@@H](CCC(N)=O)C(=O)N1CCC[C@H]1C(=O)N[C@@H](CCCNC(=N)N)C(=O)O)C(C)C [Compound 69, [Ser^3(4-Methylpentanoyl)]-hGhrelin]
120 nM | CC(C)C[C@H](NC(=O)[C@H](CCCCN)NC(=O)[C@H](C)NC(=O)[C@@H]1CCCN1C(=O)[C@@H]1CCCN1C(=O)[C@H](CCCCN)NC(=O)[C@H](CCCCN)NC(=O)[C@H](CO)NC(=O)[C@H](CCC(=O)O)NC(=O)[C@H](CCCCN)NC(=O)[C@H](CCCNC(=N)N)NC(=O)[C@H](CCC(N)=O)NC(=O)[C@H](CCC(N)=O)NC(=O)[C@@H](NC(=O)[C@H](CCCNC(=N)N)NC(=O)[C@H](CCC(N)=O)NC(=O)[C@H](Cc1c[nH]cn1)NC(=O)[C@H](CCC(=O)O)NC(=O)[C@@H]1CCCN1C(=O)[C@H](CO)NC(=O)[C@H](CC(C)C)NC(=O)[C@H](Cc1ccccc1)NC(=O)[C@H](CCCCN)NC(=O)[C@H](CO)NC(=O)CN)C(C)C)C(=O)N[C@@H](CCC(N)=O)C(=O)N1CCC[C@H]1C(=O)N[C@@H](CCCNC(=N)N)C(=O)O [Compound 72, [Lys^3]-hGhrelin]
2800 nM | CCCC[C@H](NC(=O)[C@H](CO)NC(=O)CN)C(=O)N[C@@H](Cc1ccccc1)C(=O)N[C@@H](CC(C)C)C(=O)N[C@@H](CO)C(=O)N1CCC[C@H]1C(=O)N[C@@H](CCC(=O)O)C(=O)N[C@@H](Cc1c[nH]cn1)C(=O)N[C@@H](CCC(N)=O)C(=O)N[C@@H](CCCNC(=N)N)C(=O)N[C@H](C(=O)N[C@@H](CCC(N)=O)C(=O)N[C@@H](CCC(N)=O)C(=O)N[C@@H](CCCNC(=N)N)C(=O)N[C@@H](CCCCN)C(=O)N[C@@H](CCC(=O)O)C(=O)N[C@@H](CO)C(=O)N[C@@H](CCCCN)C(=O)N[C@@H](CCCCN)C(=O)N1CCC[C@H]1C(=O)N1CCC[C@H]1C(=O)N[C@@H](C)C(=O)N[C@@H](CCCCN)C(=O)N[C@@H](CC(C)C)C(=O)N[C@@H](CCC(N)=O)C(=O)N1CCC[C@H]1C(=O)N[C@@H](CCCNC(=N)N)C(=O)O)C(C)C [Compound 73, [Nle^3]-hGhrelin]
1600 nM | CC(C)C[C@H](NC(=O)[C@H](CCCCN)NC(=O)[C@H](C)NC(=O)[C@@H]1CCCN1C(=O)[C@@H]1CCCN1C(=O)[C@H](CCCCN)NC(=O)[C@H](CCCCN)NC(=O)[C@H](CO)NC(=O)[C@H](CCC(=O)O)NC(=O)[C@H](CCCCN)NC(=O)[C@H](CCCNC(=N)N)NC(=O)[C@H](CCC(N)=O)NC(=O)[C@H](CCC(N)=O)NC(=O)[C@@H](NC(=O)[C@H](CCCNC(=N)N)NC(=O)[C@H](CCC(N)=O)NC(=O)[C@H](Cc1c[nH]cn1)NC(=O)[C@H](CCC(=O)O)NC(=O)[C@@H]1CCCN1C(=O)[C@H](CO)NC(=O)[C@H](CC(C)C)NC(=O)[C@H](Cc1ccccc1)NC(=O)[C@@H](NC(=O)[C@H](CO)NC(=O)CN)C(C)C)C(C)C)C(=O)N[C@@H](CCC(N)=O)C(=O)N1CCC[C@H]1C(=O)N[C@@H](CCCNC(=N)N)C(=O)O [Compound 74, [Val^3]-hGhrelin]
11 nM | CCCCCCCC(=O)OC[C@H](NC(=O)[C@H](CO)NC(=O)CN)C(=O)N[C@@H](Cc1ccccc1)C(=O)N[C@@H](CC(C)C)C(=O)N[C@@H](CO)C(=O)N[C@@H](CCCCN)C(N)=O [Compound 75, [Lys^7]-Ghrelin (1-7)-amide] (H-GSS(Octanoyl)FLSK-NH2)
12 nM | CCCCCCCCOC[C@H](NC(=O)CCCCN)C(=O)N[C@@H](Cc1ccccc1)C(=O)N[C@@H](CCCCN)C(N)=O [Compound 76, [N-Aminopentanoyl, Ser^3(Octyl), Lys^5]-Ghrelin (3-5)-amide]
1600 nM | CCCCCCCCOC[C@@H](NC(=O)CCCCN)C(=O)N[C@H](Cc1ccccc1)C(=O)N[C@@H](CCCCN)C(N)=O [Compound 77, [N-Aminopentanoyl, ^DSer^3(Octyl), ^DPhe^4, Lys^5]-Ghrelin (3-5)-amide]
34 nM | CCCCCCCCOC[C@H](NC(=O)[C@H](Cc1c[nH]cn1)NC(=O)C(C)(C)N)C(=O)N[C@@H](Cc1ccccc1)C(=O)N[C@@H](CCCCN)C(N)=O [Compound 78, [Aib^1, His^2, Ser^3(Octyl), Lys^5]-Ghrelin (1-5)-amide] (H-[Aib]HS(Octyl)FK-NH2)
38 nM | CCCCCCCCOC[C@@H](NC(=O)[C@H](Cc1c[nH]cn1)NC(=O)C(C)(C)N)C(=O)N[C@H](Cc1ccccc1)C(=O)N[C@@H](CCCCN)C(N)=O [Compound 79, [Aib^1, His^2, ^DSer^3(Octyl), ^DPhe^4, Lys^5]-Ghrelin (1-5)-amide] (H-[Aib]H[dS](Octyl)[dF]K-NH2)
11 nM | CCCCCCCCOC[C@H](NC(=O)CCCCN)C(=O)N[C@@H](Cc1ccccc1)C(=O)N[C@@H](CC(C)C)C(N)=O [Compound 81, [N-Aminopentanoyl, Ser^3(Octyl)]-Ghrelin (3-5)-amide]
12 nM | CCCCCCCCOC[C@H](NC(=O)CCCCN)C(=O)N[C@@H](Cc1ccccc1)C(=O)N[C@@H](CC(C)C)C(=O)NC [Compound 82, [N-Aminopentanoyl, Ser^3(Octyl)]-Ghrelin (3-5)-methylamide]
22 nM | CCCCCCCCOC[C@H](NC(=O)CCCCN)C(=O)N[C@@H](Cc1ccccc1)C(=O)N[C@@H](CC(C)C)C(=O)NCC [Compound 83, [N-Aminopentanoyl, Ser^3(Octyl)]-Ghrelin (3-5)-ethylamide]
98 nM | CCCCCCCCOC[C@H](NC(=O)CCCCN)C(=O)N[C@@H](Cc1ccccc1)C(=O)N[C@@H](CC(C)C)C(=O)NCc1ccccc1 [Compound 84, [N-Aminopentanoyl, Ser^3(Octyl)]-Ghrelin (3-5)-benzylamide]
3.5 nM | CCCCCCCCOC[C@H](NC(=O)CCCCN)C(=O)N[C@@H](Cc1ccccc1)C(=O)N[C@@H](CC(C)C)C(=O)NCCN [Compound 85, [N-Aminopentanoyl, Ser^3(Octyl)]-Ghrelin (3-5), aminoethylamide]

same assay, conditions: Ca-releasing activity EC50, CHO-GHSR62 cells (CHO cells expressing rat GHS receptor), FLIPR

Compound | EC50
CC(C)C[C@H](NC(=O)[C@H](CCCCN)NC(=O)[C@H](C)NC(=O)[C@@H]1CCCN1C(=O)[C@@H]1CCCN1C(=O)[C@H](CCCCN)NC(=O)[C@H](CCCCN)NC(=O)[C@H](CO)NC(=O)[C@H](CCC(=O)O)NC(=O)[C@H](CCCCN)NC(=O)[C@H](CCCNC(=N)N)NC(=O)[C@H](CCC(N)=O)NC(=O)[C@H](CCC(N)=O)NC(=O)[C@@H](NC(=O)[C@H](CCCNC(=N)N)NC(=O)[C@H](CCC(N)=O)NC(=O)[C@H](Cc1c[nH]cn1)NC(=O)[C@H](CCC(=O)O)NC(=O)[C@@H]1CCCN1C(=O)[C@H](CO)NC(=O)[C@H](CC(C)C)NC(=O)[C@H](Cc1ccccc1)NC(=O)[C@H](CSC(c1ccccc1)(c1ccccc1)c1ccccc1)NC(=O)[C@H](CO)NC(=O)CN)C(C)C)C(=O)N[C@@H](CCC(N)=O)C(=O)N1CCC[C@H]1C(=O)N[C@@H](CCCNC(=N)N)C(=O)O [Compound 68, [Cys^3(Trityl)]-hGhrelin] | 20 nM
